Data published in paper PMC11926788, “Effect of SSR504734, a Selective Glycine Transporter Type 1 Inhibitor, on Seizure Thresholds, Neurotransmitter Levels, and Inflammatory Markers in Mice” (ACS Chemical Neuroscience, 2025).
Where a name gives a salt, the structure may show the parent alone. Read-outs that look alike come from different tables or passages of the source.

Legend:
[1] = Pharmacokinetic study of SSR504734 in mice (serum and tissue concentrations by LC-MS/MS, noncompartmental analysis); type: in vivo
Description: SSR504734 was administered i.p. at the dose of 30 mg/kg, and mice were sacrificed by decapitation at 5, 15, 30, 60, 120, 240, and 480 min after dosing. The trunk blood samples (∼1 mL) were collected in polypropylene tubes and allowed to clot at room temperature. Subsequently, the blood was centrifuged at 5600 rpm for 10 min. Serum samples were collected in new tubes. Immediately after decapitation, brains and other tissues such as the liver, lungs, kidneys, heart, spleen, gut, and adipose were removed from the skull and washed with cold 0.9% NaCl. Samples were kept at −80 °C until the day of analysis.
Serum and tissue concentrations of SSR504734 in mice were quantified by a liquid chromatography tandem mass spectrometry (LC-MS/MS) method. Stock solutions of the studied compound were prepared in methanol at a concentration of 1 mg/mL. Working solutions were prepared by dilution of the standard solutions in acetonitrile/water 1:1 (v/v). Tissue homogenates were obtained by homogenization of each tissue in distilled water at a ratio of 1:4 (w/v) using a basic T10 ULTRA-TURRAX tissue homogenizer (IKA, Poland). Mouse serum and tissues, which were used to prepare standard samples and quality control (QC) samples, were harvested from untreated healthy animals after exsanguination. Standard and QC samples were prepared by adding 5 μL of working solutions of SSR504734 to 45 μL of mouse serum or 45 μL of tissue homogenates. Real serum and homogenate samples, QC samples, and standard samples were subjected to the same precipitation procedure. Briefly, 150 μL of 0.1% formic acid solution in acetonitrile containing pentoxifylline (PTX) as an internal standard (IS) at a concentration of 5 ng/mL was added to 50 μL of analyzed serum, homogenate, standard samples, or QC samples in Eppendorf tubes and mixed on a vortex mixer for 10 min (IKA Vibrax VXR, Germany). Subsequently, samples were centrifuged at 10,000 rpm for 10 min at room temperature (Eppendorf miniSpin centrifuge). 2 μL of supernatant was subjected to LC-MS/MS analysis using an Exion LC AC HPLC system coupled to a SCIEX QTRAP 4500 triple-quadrupole mass spectrometer (Danaher Corporation, Framingham, MA, US). Chromatographic separation was performed using a Hypersil Gold C18 analytical column (2.1 × 50 mm, 3 μm) (Thermo Scientific, USA) at 25 °C. The mobile phase consisting of water containing 0.1% formic acid and acetonitrile containing 0.1% formic acid (60:40, v/v) was pumped at a flow rate of 0.5 mL/min in an isocratic elution mode. All detections were performed in positive ion mode. The selected reaction monitoring (SRM) for the transitions was m/z 397.2 → 207.0 and m/z 397.2 → 174.2 (quantifier and qualifier) for SSR504734 and m/z 279 → 181 for IS. The optimal MS parameters for SSR504734 multiple reaction monitoring (MRM) transitions selected by continuous infusion of the standard solution at the rate of 7 μL/min using a Harvard infusion pump were as follows: the declustering potential was 120 V, the collision energy was 35.6 V, the entrance potential was 10 V, and the cell exit potential was 6 V. These parameters for IS were 60, 24, 10, and 6 V, respectively. An additional tuning optimization of gas flows and temperatures was performed by flow injection analysis. The ion source temperature was maintained at 450 °C, the ion spray voltage at 4000 V, the curtain gas (CUR) was set at 25 psi, the nebulizer (GS1) and TIS (GS2) gases at 40.0 and 50.0 psi, respectively, and the collision gas (CAD) at Medium.
Data acquisition and processing were carried out using Analyst 1.7 software. The calibration curves were constructed by plotting the ratio of the peak area of the analyte to the peak area of the IS vs the concentration of the analyte and generated by weighted (1/y) nonlinear regression analysis by fitting a quadratic formula. […]

[2] = tested on: tonic hindlimb extension in the MEST test in mice; test: Maximal electroshock seizure threshold (MEST) test; type: in vivo
Description: A sinusoidal current alternation was delivered via saline-soaked transcorneal electrodes. Before stimulation, an ocular anesthetic (1% tetracaine hydrochloride solution obtained from Sigma-Aldrich, St. Louis, MO, USA) was administered to each eye of the mice. During stimulation, the mice were manually immobilized in a hand for 3–5 s and immediately relocated to a transparent box for behavioral observation after the stimulation. Hindlimb tonic extension was taken as an end point. Two experimental approaches were employed: (1) the maximal electroshock seizure threshold (MEST) test at varied current intensities and (2) the maximal electroshock (MES) test at a fixed current intensity.
In the MEST test, seizure thresholds were determined using the “up-and-down” method described by Kimball et al.[28] […] Each mouse was stimulated only once.

[3] = mouse, ip, adipose, single 30 mg/kg i.p.
[4] = mouse, ip, brain, single 30 mg/kg i.p.
[5] = mouse, ip, gut, single 30 mg/kg i.p.
[6] = mouse, ip, heart, single 30 mg/kg i.p.
[7] = mouse, ip, kidneys, single 30 mg/kg i.p.
[8] = mouse, ip, liver, single 30 mg/kg i.p.
[9] = mouse, ip, lungs, single 30 mg/kg i.p.
[10] = mouse, ip, serum, single 30 mg/kg i.p.
[11] = mouse, ip, spleen, single 30 mg/kg i.p.

O=C(NC(c1ccccc1)C1CCCCN1)c1cccc(C(F)(F)F)c1Cl [SSR504734, 2-chloro-N-[(S)-phenyl[(2S)-piperidin-2-yl]methyl]-3-trifluoromethyl benzamide monohydrochloride]
AUClast ([1]; adipose, single 30 mg/kg i.p.): 3347.89 µg·min/mL (g tissue)
AUClast ([1]; brain, single 30 mg/kg i.p.): 1137.50 µg·min/mL (g tissue)
Kp (tissue-to-serum partition coefficient, AUClast(tissue)/AUClast(serum)) ([1]; brain, single 30 mg/kg i.p., 30 mg/kg): 3.05
AUClast ([1]; gut, single 30 mg/kg i.p.): 10606.43 µg·min/mL (g tissue)
AUClast ([1]; heart, single 30 mg/kg i.p.): 4841.83 µg·min/mL (g tissue)
AUClast ([1]; kidneys, single 30 mg/kg i.p.): 16781.00 µg·min/mL (g tissue)
AUClast ([1]; liver, single 30 mg/kg i.p.): 8821.36 µg·min/mL (g tissue)
AUClast ([1]; lungs, single 30 mg/kg i.p.): 33485.57 µg·min/mL (g tissue)
Kp ([1]; mouse, adipose (relative to serum), ip, 30 mg/kg, adipose, single 30 mg/kg i.p., read-out: Kp (tissue-to-serum partition coefficient)): 8.98
Kp ([1]; mouse, brain (relative to serum), ip, 30 mg/kg, brain, single 30 mg/kg i.p., read-out: Kp (tissue-to-serum partition coefficient, AUClast(tissue)/AUClast(serum))): > 3
Kp ([1]; mouse, gut (relative to serum), ip, 30 mg/kg, gut, single 30 mg/kg i.p., read-out: Kp (tissue-to-serum partition coefficient)): 28.5
Kp ([1]; mouse, heart (relative to serum), ip, 30 mg/kg, heart, single 30 mg/kg i.p., read-out: Kp (tissue-to-serum partition coefficient)): 13
Cmax ([1]; mouse, ip, 30 mg/kg i.p., assuming brain tissue density of ∼1 g/mL, read-out: Cmax in the brain tissue): 5150 ng/mL
MRT [1, 3]: 1.37 h
Tmax [1, 3]: 0.0833 h
half-life [1, 3]: 1.33 h
Cmax ([1]; mouse, ip, adipose, single 30 mg/kg i.p., read-out: Cmax): 65700 ng/g
MRT [1, 4]: 2.36 h
Tmax [1, 4]: 0.5 h
half-life [1, 4]: 1.75 h
Cmax ([1]; mouse, ip, brain, single 30 mg/kg i.p., read-out: Cmax): 5150 ng/g
CL/F ([1]; mouse, ip, from serum vs time profile, 30 mg/kg i.p., read-out: apparent clearance (CL/F)): 77.8 mL/min/kg
Vd/F ([1]; mouse, ip, from serum vs time profile, 30 mg/kg i.p., read-out: volume of distribution during the terminal phase (Vz/F)): 11.1 L/kg
MRT [1, 5]: 1.96 h
Tmax [1, 5]: 0.0833 h
half-life [1, 5]: 1.73 h
Cmax ([1]; mouse, ip, gut, single 30 mg/kg i.p., read-out: Cmax): 77900 ng/g
MRT [1, 6]: 1.68 h
Tmax [1, 6]: 0.25 h
half-life [1, 6]: 1.31 h
Cmax ([1]; mouse, ip, heart, single 30 mg/kg i.p., read-out: Cmax): 38300 ng/g
MRT [1, 7]: 2.03 h
Tmax [1, 7]: 0.5 h
half-life [1, 7]: 1.4 h
Cmax ([1]; mouse, ip, kidneys, single 30 mg/kg i.p., read-out: Cmax): 93500 ng/g
MRT [1, 8]: 1.76 h
Tmax [1, 8]: 0.0833 h
half-life [1, 8]: 1.52 h
Cmax ([1]; mouse, ip, liver, single 30 mg/kg i.p., read-out: Cmax): 101000 ng/g
MRT [1, 9]: 2.6 h
Tmax [1, 9]: 0.25 h
half-life [1, 9]: 2.04 h
Cmax ([1]; mouse, ip, lungs, single 30 mg/kg i.p., read-out: Cmax): 147000 ng/g
MRT [1, 10]: 1.86 h
Tmax [1, 10]: 0.25 h
half-life [1, 10]: 1.65 h
Cmax ([1]; mouse, ip, serum, single 30 mg/kg i.p., read-out: Cmax): 3000 ng/mL
MRT [1, 11]: 1.66 h
Tmax [1, 11]: 0.25 h
half-life [1, 11]: 1.6 h
Cmax ([1]; mouse, ip, spleen, single 30 mg/kg i.p., read-out: Cmax): 193000 ng/g
Kp ([1]; mouse, kidneys (relative to serum), ip, 30 mg/kg, kidneys, single 30 mg/kg i.p., read-out: Kp (tissue-to-serum partition coefficient)): 45
Kp ([1]; mouse, liver (relative to serum), ip, 30 mg/kg, liver, single 30 mg/kg i.p., read-out: Kp (tissue-to-serum partition coefficient)): 23.7
Kp ([1]; mouse, lungs (relative to serum), ip, 30 mg/kg, lungs, single 30 mg/kg i.p., read-out: Kp (tissue-to-serum partition coefficient)): 89.8
Kp ([1]; mouse, spleen (relative to serum), ip, 30 mg/kg, spleen, single 30 mg/kg i.p., read-out: Kp (tissue-to-serum partition coefficient)): 50
AUClast ([1]; serum, single 30 mg/kg i.p.): 372.73 µg·min/mL (g tissue)
AUClast ([1]; spleen, single 30 mg/kg i.p.): 18616.26 µg·min/mL (g tissue)
fold increase of seizure threshold (CS50), time-course ([2]; 30 mg/kg i.p., 60 and 120 min after administration, vs control): ~1.3 fold
effect on seizure threshold (CS50), time-course ([2]; 30 mg/kg i.p., at 30, 60, 120 and 240 min): significantly raised the seizure threshold
fold increase in CC50 value ([2]; 14-day repeated treatment, 30 mg/kg i.p.): 1.2 fold
effect on seizure threshold ([2]; 14-day repeated treatment, 3 and 10 mg/kg i.p.): no changes in seizure threshold
effect on threshold for tonic hindlimb extension ([2]; acute, 10 mg/kg i.p., 60 min before test): ineffective
fold increase of current intensity necessary to induce hindlimb tonus ([2]; acute, 30 mg/kg i.p., 60 min before test): 1.2 fold
fold increase of current intensity necessary to induce hindlimb tonus ([2]; acute, 50 mg/kg i.p., 60 min before test): 1.6 fold
